Key:
[1] = 101.33 kPa, Liquid, Vibrating tube method
[2] = excess molar enthalpy (molar enthalpy of mixing); xn = mol fraction of the nth substance listed; settings: 2239 kPa, Liquid, Flow calorimetry

CCCCCCCC[N+]1(C)CCCC1.O=S(=O)([N-]S(=O)(=O)C(F)(F)F)C(F)(F)F
[1]
Settings | mass density [kg/m3]
298.15 K | 1291.2
303.15 K | 1286.9
308.14 K | 1283
313.15 K | 1279.1
318.15 K | 1275.1
323.14 K | 1271.4
328.14 K | 1267.5
333.14 K | 1263.7
338.14 K | 1259.7
343.14 K | 1255.7
348.15 K | 1251.7

CCCCCC[N+]1(C)CCCC1.O=S(=O)([N-]S(=O)(=O)C(F)(F)F)C(F)(F)F
[1]
Settings | mass density [kg/m3]
278.16 K | 1352.1
283.14 K | 1347.7
288.14 K | 1343.4
293.15 K | 1339.5
298.14 K | 1335.3
303.14 K | 1331.1
308.14 K | 1326.8
313.14 K | 1322.6
318.14 K | 1318.3
323.14 K | 1314.1
328.14 K | 1309.9
333.14 K | 1305.6
338.15 K | 1301.4
343.14 K | 1297.1

CCCC[N+]1(C)CCCC1.O=S(=O)([N-]S(=O)(=O)C(F)(F)F)C(F)(F)F + C=CCCCC
[2], 363.15 K
Settings | excess molar enthalpy [kcal/mol]
x2 = 0.0587 | 0.0332
x2 = 0.1135 | 0.064
x2 = 0.1647 | 0.0835
x2 = 0.2579 | 0.104
x2 = 0.3781 | 0.11
x2 = 0.4477 | 0.0987
x2 = 0.5104 | 0.0864
x2 = 0.6185 | 0.0666
x2 = 0.7086 | 0.0533
x2 = 0.7849 | 0.0399
x2 = 0.8795 | 0.0203

C=CCCCCC [1-heptene] + CCCC[N+]1(C)CCCC1.O=S(=O)([N-]S(=O)(=O)C(F)(F)F)C(F)(F)F
[2], 413.15 K
Settings | excess molar enthalpy [kcal/mol]
x1 = 0.0525 | 0.0322
x1 = 0.1022 | 0.0621
x1 = 0.1492 | 0.0898
x1 = 0.2762 | 0.113
x1 = 0.3509 | 0.1
x1 = 0.4189 | 0.0913
x1 = 0.481 | 0.0807
x1 = 0.5904 | 0.0622
x1 = 0.6838 | 0.0501
x1 = 0.7643 | 0.035
x1 = 0.8664 | 0.0204
x1 = 0.9511 | 0.00911

From the NIST ThermoML archive (doi:10.1016/j.fluid.2008.11.013)
